Laboratory results from article PMC9969396, “Development of Human Carbonic Anhydrase II Heterobifunctional Degraders” (Journal of Medicinal Chemistry, 2023).
Like-named read-outs stand apart in the source and are kept apart here.

What was measured:
hCAII [1] = biological target: T1, hCAII (Homo sapiens, UniProt P00918); experiment: colorimetric p-nitrophenyl acetate hCAII activity assay; assay type: biochemical
T1 construct: made in house; host or cells: Escherichia coli BL21(DE3), pACA plasmid (gift from Carol A. Fierke)
Protocol: To verify that the p-sulfamoyl benzamide MBP retained its binding following ligation with the linker and bulky recruiting group moieties, the inhibition activity of each degrader candidate was determined using a colorimetric p-nitrophenol acetate hCAII activity assay.[46] In short, recombinantly expressed hCAII was preincubated with the degrader candidate before the addition of p-nitrophenyl acetate, a substrate that upon enzymatic cleavage leads to acetic acid and p-nitrophenolate.
Recombinant hCAII was expressed and purified according to the protocol reported in the Supporting Information. […] Wells were prepared to a final volume of 100 μL per well, including buffer (50 mM HEPES, pH 8.0), enzyme (hCAII, 40 nM), inhibitor (varying concentrations), and substrate (p-nitrophenyl acetate, 500 μM). Inhibitors and protein were preincubated for 10 min at rt, and the substrate was added to the reaction mixture immediately before reading. […] The rate of absorbance for each replicate was corrected for substrate autohydrolysis and inherent inhibitor absorbance by subtracting the rate of absorbance from a blank sample lacking enzyme but containing the inhibitor and substrate. Samples lacking inhibitor but containing enzyme and substrate were used to define 100% hCAII activity. Samples lacking inhibitor and enzyme were used to define 0% hCAII activity. IC50 was determined using non-linear regression with a variable slope on the GraphPad Prism software.

hCAII [2] = biological target: T2, hCAII (Homo sapiens, UniProt P00918+Q96SW2); experiment: time-course of hCAII abundance in HEK293 cells, western blot; assay type: cell-based; conditions: 50 nM
T2 construct: HEK293 cells, a line known to abundantly express hCAII; endogenous in cells; host or cells: HEK293
Protocol: To determine the efficiency of 11, hCAII abundance was evaluated in HEK293 cells that were dosed with 50 nM of 11 over 48 h. Depletion of hCAII relative to vehicle (DMSO) began within 2 h and reached a maximal effect by 6 h (Figure 5c). Sustained degradation was also observed for the entirety of the 48 h tested. Based on the results of this time-course dosing experiment, it appears that 11 begins degrading hCAII quickly after exposure to the cell and maintains prolonged activity after initial dosing.
After reaching 90% confluency, HEK293 cells were trypsinized, counted, and plated with 2 mL media at 2 × 10^6 cells per well on a tissue-culture-treated, 6-well plate. […] Lysates were thawed on ice, and the total protein concentration was measured using a Pierce bicinchoninic acid protein assay (Thermo Fisher Scientific, 23225). […] The immunoblot was then analyzed using the ImageJ software as an 8-bit image. The brightness and contrast of the image were adjusted, and the integrated density was calculated for each protein band using the gel lane analysis tool. Relative hCAII expression was calculated by normalizing the hCAII/β-actin ratio in compound-treated wells to the hCAII/β-actin ratio in vehicle (DMSO)-treated wells and indicated as “hCAII Abundance (% DMSO)”.

hCAII [3] = biological target: T2, hCAII; experiment: nine-point dose response hCAII degradation assay in HEK293 cells, western blot; assay type: cell-based
Protocol: Three biological replicates of HEK293 cells were dosed in parallel with 4 or 5 at concentrations ranging from 5 pM to 15 μM for 24 h prior to lysis. […] This phenomenon can be attributed to the binary complexes of degrader-POI and degrader-E3 ligase outcompeting the POI-degrader-E3 ligase ternary complex at high degrader concentrations. […] The half-maximal degradation (DC50 value reported as a 95% confidence interval) and maximum percentage of degradation (DMax) of each active degrader were determined using a least squares sigmoidal fitting of the degradation activity of dosing concentrations below the observable “hook effect” (Figure 2B).
Figure 3 Dose-dependent degradation of hCAII by 4 and 5. (A) Western blot images of HEK293 cells dosed for 24 h with degrader 4 (left) or 5 (right) at concentrations of 5 pM to 15 μM. (B) Dose response curves of hCAII abundance as a percent of DMSO vehicle for 4 (left) or 5 (right). Band intensities of blots from three biological replicates were quantified using ImageJ software (Experimental Section). Data were normalized to a vehicle-treated (DMSO) group and plotted as a sigmoidal curve. Nonlinear fitting of log([inhibitor]) vs response (three parameters) was generated for 4 with R^2 = 0.955 and 5 with R^2 = 0.855 in GraphPad Prism. Points marked with an asterisk indicate only two biological replicates. In all other cases, error bars represent the standard deviation of triplicate experiments. Full images of the western blots are provided in the Supporting Information (Figures S1 and S3).
Given the inactivity of 1–3 and increased potency of 4 over 5, a 12-atom linker appeared to be a preferred length for favorable ternary complex formation in the heterobifunctional degraders tested. To further examine the role of linker length and composition, we explored hydrocarbon linkers for their ability to improve degrader lipophilicity and membrane permeability without impacting the favorable ternary complex formation. […] Western blot analysis and quantification of three biological replicates identified the degradation of hCAII at concentrations of 11 as low as 50 pM and achieved near-complete hCAII degradation at concentrations of 5 nM (Figures 5A and S3).
After reaching 90% confluency, HEK293 cells were trypsinized, counted, and plated with 2 mL media at 2 × 10^6 cells per well on a tissue-culture-treated, 6-well plate. At the appropriate number of hours before reaching ∼90% confluency, cells were treated with DMSO solutions of the appropriate compounds (final concentration 0.5% DMSO per well). Upon reaching 90% confluency, typically 72 h, culture media were removed and the cells were washed with cold Dulbecco’s phosphate-buffered saline (DPBS). Lysis buffer, composed of cell lysis buffer (Cell Signaling Technology, 9803), protease inhibitor cocktail (Cell Signaling Technology, 5872), and 1 mM phenylmethylsulfonylfluoride, was added to each well, and the plates were rocked at 4 °C for 20 min. Cells were then scraped from the bottom of the plates, and the supernatant was collected after spinning down at 14,000g at 4 °C for 10 min and frozen at −80 °C. Lysates were thawed on ice, and the total protein concentration was measured using a Pierce bicinchoninic acid protein assay (Thermo Fisher Scientific, 23225). […] Following heating at 98 °C for 5 min and cooling to room temperature, the prepared samples were electrophoretically separated on a 4–20% TGX gel (Bio-Rad, 4568095) and transferred to a PVDF membrane (Amersham Hybond P 0.45 μm, 106000019) in a tris-glycine transfer buffer (Thermo Fisher Scientific, LC3675) with a 20% final MeOH concentration. The membrane was rocked at 4 °C with fluorescent blocking buffer (Thermo Fisher Scientific, 37565) for 1 h and then incubated with primary antibodies (hCAII Rabbit mAb, 1:1000 and β-actin Rabbit pAb, 1:2000 in fluorescent blocking buffer) at 4 °C overnight. […]

hCAII [4] = biological target: T2, hCAII; experiment: competition / mechanistic experiments on hCAII degradation in HEK293 cells, western blot; assay type: cell-based; conditions: then 50 nM for 6 h
Protocol: Competition experiments were performed to verify that the degradation activity of 11 was the result of a PROTAC-style mechanism requiring concurrent degrader engagement with both hCAII and CRBN.
After reaching 90% confluency, HEK293 cells were trypsinized, counted, and plated with 2 mL media at 2 × 10^6 cells per well on a tissue-culture-treated, 6-well plate. At the appropriate number of hours before reaching ∼90% confluency, cells were treated with DMSO solutions of the appropriate compounds (final concentration 0.5% DMSO per well). Upon reaching 90% confluency, typically 72 h, culture media were removed and the cells were washed with cold Dulbecco’s phosphate-buffered saline (DPBS). Lysis buffer, composed of cell lysis buffer (Cell Signaling Technology, 9803), protease inhibitor cocktail (Cell Signaling Technology, 5872), and 1 mM phenylmethylsulfonylfluoride, was added to each well, and the plates were rocked at 4 °C for 20 min. Cells were then scraped from the bottom of the plates, and the supernatant was collected after spinning down at 14,000g at 4 °C for 10 min and frozen at −80 °C. Lysates were thawed on ice, and the total protein concentration was measured using a Pierce bicinchoninic acid protein assay (Thermo Fisher Scientific, 23225). […] Following heating at 98 °C for 5 min and cooling to room temperature, the prepared samples were electrophoretically separated on a 4–20% TGX gel (Bio-Rad, 4568095) and transferred to a PVDF membrane (Amersham Hybond P 0.45 μm, 106000019) in a tris-glycine transfer buffer (Thermo Fisher Scientific, LC3675) with a 20% final MeOH concentration. […] The immunoblot was then analyzed using the ImageJ software as an 8-bit image. The brightness and contrast of the image were adjusted, and the integrated density was calculated for each protein band using the gel lane analysis tool. Relative hCAII expression was calculated by normalizing the hCAII/β-actin ratio in compound-treated wells to the hCAII/β-actin ratio in vehicle (DMSO)-treated wells and indicated as “hCAII Abundance (% DMSO)”.

[5] = SMILES csv supplement, read-out: hCAII IC50
[6] = recombinant hCAII 40 nM, p-nitrophenyl acetate 500 μM, pH 8.0, 95% confidence interval, read-out: IC50 (nM), hCAII inhibition activity (Table S1)
[7] = enzyme concentration of 40 nM, read-out: IC50, below the detection limit of the assay

| SMILES | IC50 (hCAII [1]; [5]) | IC50 (hCAII [1]; [6]) | also measured |
| --- | --- | --- | --- |
| NS(=O)(=O)c1ccc(C(=O)NCCOCCNc2cccc3c2C(=O)N(C2CCC(=O)NC2=O)C3=O)cc1 (stereo not shown) [Compound 1, N-(2-(2-((2-(2,6-Dioxopiperidin-3-yl)-1,3-dioxoisoindolin-4-yl)amino)ethoxy)ethyl)-4-sulfamoylbenzamide] | 48 ± 5 nM | 48 ± 5 nM | – |
| NS(=O)(=O)c1ccc(C(=O)NCCOCCNC(=O)CC23CC4CC(CC(C4)C2)C3)cc1 [Compound 6, N-(2-(2-(2-((3r,5r,7r)-Adamantan-1-yl)acetamido)ethoxy)ethyl)-4-sulfamoylbenzamide] | – | 57 ± 5 nM | – |
| NS(=O)(=O)c1ccc(C(=O)NCCCOCCCCOCCCNC(=O)CC23CC4CC(CC(C4)C2)C3)cc1 [Compound 9, N-(3-(4-(3-(2-((3r,5r,7r)-Adamantan-1-yl)acetamido)propoxy)butoxy)propyl)-4-sulfamoylbenzamide] | 35 ± 5 nM | 35 ± 5 nM | – |
| NS(=O)(=O)c1ccc(C(=O)NCCCOCCOCCOCCCNC(=O)CC23CC4CC(CC(C4)C2)C3)cc1 [Compound 10, N-(1-((3r,5r,7r)-Adamantan-1-yl)-2-oxo-7,10,13-trioxa-3-azahexadecan-16-yl)-4-sulfamoylbenzamide] | – | ≤ 20 nM | IC50 (hCAII [1]; [7]): ≤ 20 nM |
| NS(=O)(=O)c1ccc(C(=O)NCCCCCCCCCCCCNc2cccc3c2C(=O)N(C2CCC(=O)NC2=O)C3=O)cc1 (stereo not shown) [Compound 11, N-(12-((2-(2,6-Dioxopiperidin-3-yl)-1,3-dioxoisoindolin-4-yl)amino)dodecyl)-4-sulfamoylbenzamide] | – | – | time to maximal effect (hCAII [2]): ≤ 6 h; Dmax (hCAII [3]; HEK293, HEK293 cells, 24 h, read-out: DMax (maximum percentage of degradation)): 100%; concentration achieving near-complete hCAII degradation (hCAII [3]; HEK293 cells, 24 h): 5 nM; degradation of hCAII at concentrations as low as (hCAII [3]; HEK293 cells, 24 h): 50 pM; DC50 (hCAII [3]; HEK293 cells, 24 h, 5 pM to 15 μM, 95% confidence interval, read-out: DC50 (half-maximal degradation)): 0.5 ± 0.3 nM; hook effect (attenuation of target degradation at high concentration) (hCAII [3]; HEK293 cells, 24 h, doses up to 15 μM): no appreciable “hook effect”; fold increase in activity over 4 (hCAII [3]; from DC50 values): 10 fold; hCAII degradation after MG132 pre-treatment (hCAII [4]; HEK293, 1 μM MG-132 for 1 h): complete loss of hCAII degradation activity; hCAII degradation after acetazolamide pre-treatment (hCAII [4]; HEK293, 1 h preincubation with 5 μM acetazolamide): no degradation of hCAII; hCAII degradation after lenalidomide pre-treatment (hCAII [4]; HEK293, 1 h preincubation with 5 μM lenalidomide): no degradation of hCAII |

More lines, main results first:

| IC50 (hCAII [1]; [5]) | IC50 (hCAII [1]; [6]) | SMILES | also measured |
| --- | --- | --- | --- |
| 41 ± 5 nM | 41 ± 5 nM | NS(=O)(=O)c1ccc(C(=O)NCCOCCOCCOCCNc2cccc3c2C(=O)N(C2CCC(=O)NC2=O)C3=O)cc1 (stereo not shown) [Compound 3, N-(2-(2-(2-(2-((2-(2,6-Dioxopiperidin-3-yl)-1,3-dioxoisoindolin-4-yl)amino)ethoxy)ethoxy)ethoxy)ethyl)-4-sulfamoylbenzamide] | – |
| – | ≤ 20 nM | NS(=O)(=O)c1ccc(C(=O)NCCOCCOCCNC(=O)CC23CC4CC(CC(C4)C2)C3)cc1 [Compound 7, N-(2-(2-(2-(2-((3r,5r,7r)-Adamantan-1-yl)acetamido)ethoxy)ethoxy)ethyl)-4-sulfamoylbenzamide] | IC50 (hCAII [1]; [7]): ≤ 20 nM |
| 28 ± 4 nM | 28 ± 4 nM | NS(=O)(=O)c1ccc(C(=O)NCCOCCOCCOCCNC(=O)CC23CC4CC(CC(C4)C2)C3)cc1 [Compound 8, N-(1-((3r,5r,7r)-Adamantan-1-yl)-2-oxo-6,9,12-trioxa-3-azatetradecan-14-yl)-4-sulfamoylbenzamide] | – |
| 58 ± 8 nM | 58 ± 8 nM | COCCNC(=O)c1ccc(S(N)(=O)=O)cc1 [Compound 13, N-(2-Methoxyethyl)-4-sulfamoylbenzamide] | – |
